# Reference: US8722626B2, “Method for controlling fibrosis and other pathological deposits in tissues comprising administering a GHRP-6 composition” (Centro de Ingenieria Genetica y Biotecnologia, priority 2006, dated 2014)
# Marks after values point to notes of the source that are not given here.
# Key:
# [1] = tested on: hepatic fibrosis in male Wistar rats (bile duct ligation); assay: Reverting hepatic fibrosis induced by ligation of the common bile duct in rats (Example 1); assay type: in vivo, rat; design: SODt (oxidative stress marker) / Catalase (oxidative stress marker) / HPT (oxidative stress marker) / MDA (oxidative stress marker): unit not given here; settings: for Grade 0 (null) hepatic fibrosis, animals per group / Grade 1 (moderate) hepatic fibrosis, animals per group / Grade 2 (limited) hepatic fibrosis, animals per group / Grade 3 (severe) hepatic fibrosis, animals per group / Grade 4 (very severe) hepatic fibrosis, animals per group: three weeks; for GGT serum level / GOT serum level / GPT serum level / Content of OH—P (hydroxiproline) in liver: end of three weeks of treatment; for Catalase (oxidative stress marker) / HPT (oxidative stress marker) / MDA (oxidative stress marker) / SODt (oxidative stress marker): liver samples, end of third week of treatment
# Protocol: The present experiment was conducted to evaluate the effect of the GHRP-6-based pharmaceutical composition on reverting the hepatic fibrosis in rats. Hepatic fibrosis was induced in male Wistar rats of 250 g of average body weight by ligating the external bile duct. For this purpose, rats were anesthetized with a ketamine/xylazine combination and subjected to laparotomy to expose the common bile duct. The duct was double-ligated with chromium catgut 4-0. After surgery, animals were randomly distributed into 3 experimental groups of 20 rats each: (1) Control placebo group, receiving physiological saline solution, (2) Group receiving the GHRP-6 at a 100 μg/kg dosage, and (3) Group receiving the GHRP-6 at a 400 μg/kg dosage. Treatments were daily administered during three weeks after inducing the fibrosis of the liver parenchyma. All the treatments were started three weeks after the appearance of fibrosis. The follow up of the hepatic damage was conducted by weekly ultrasound examinations of the projection area of this organ, the progress of serum levels of GOT and GPT transaminases, gamma glutamyl transferase (GGT) levels and the volume of ascitis. Treatments with GHRP-6 or placebo were applied by the intraperitoneal route once daily. When treatments concluded, animals were sacrificed and blood serum and the liver were collected. Liver fragments were fixed in formalin neutral and processed by hematoxylin/eosin staining, or by Masson's trichromic staining, to evaluate the general damage and the severity of fibrotic indurations. Other fragments of liver tissues were stored at −70° C. until processing to determine the content of hydroxiproline by acid hydrolysis in 1N HCl, and also the intrahepatic levels of redox metabolism markers. Biochemical determinations were carried out by calculating the total protein content by the Bradford's method.
# [2] = tested on: hepatic fibrosis in male Wistar rats (CCl4); assay: Reverting hepatic fibrosis induced by carbon tetrachloride (CCl4) in rats (Example 2); assay type: in vivo, rat; design: SODt (oxidative stress marker) / Catalase (oxidative stress marker) / HPT (oxidative stress marker) / MDA (oxidative stress marker): unit not given here; settings: for GOT serum level / GPT serum level / OH—P Content (hydroxiproline) in the liver / Grade 0 (null) bridging fibro-proliferative reaction in liver, animals per group / Grade 1 (moderate, up to 25% of the slide), animals per group / Grade 2 (limited, up to 50% of the slide), animals per group / Grade 3 (severe, up to the 75% of the slide), animals per group / Grade 4 (very severe, over 75% of the slide), animals per group: four weeks; for GOT serum level / GPT serum level / OH—P Content (hydroxiproline) in the liver: end of treatment; for Grade 0 (null) bridging fibro-proliferative reaction in liver, animals per group / Grade 1 (moderate, up to 25% of the slide), animals per group / Grade 2 (limited, up to 50% of the slide), animals per group / Grade 3 (severe, up to the 75% of the slide), animals per group / Grade 4 (very severe, over 75% of the slide), animals per group: n = 15; for Catalase (oxidative stress marker) / HPT (oxidative stress marker) / MDA (oxidative stress marker) / SODt (oxidative stress marker): liver samples, end of the third week of treatment
# Protocol: This experiment was conducted to evaluate the effect of the pharmaceutical composition containing the GHRP-6 on reverting hepatic fibrosis in rats, wherein said hepatic fibrosis was induced by carbon tetrachloride (CCl4). This is a hepatotoxic agent that causes chronic hepatitis and fibrosis after long-term administration. Hepatic fibrosis was induced in male Wistar rats of 250 g of body weight by intraperitoneally administered CCl4 50%/50% (v/v) in olive oil, twice per week during four weeks. After that time, 25% of the rats were sacrificed and subjected to blood biochemistry and pathological anatomy studies. […] The animals remaining were randomly distributed into three experimental groups of 15 rats each: (1) Control placebo group, receiving physiological saline solution, (2) Group receiving the GHRP-6 at a 100 μg/kg dosage, and (3) Group receiving the GHRP-6 at a 400 μg/kg dosage. […] Treatments were started immediately after the fibrosis established and the suspension of CCl4 administration. […] Liver fragments were fixed in formalin neutral and processed by hematoxylin/eosin staining, or by Masson's trichromic staining, to evaluate the general damage and the severity of fibrotic indurations. Other fragments of liver tissues were stored at −70° C. until processing to determine the content of hydroxiproline by acid hydrolysis in 1N HCl, and also the intrahepatic levels of redox metabolism markers. Biochemical determinations were carried out by calculating the total protein content by the Bradford's method. The response to the treatment with the pharmaceutical composition was characterized by determining the serum levels of GOT and GPT transaminases, histological criteria in quantitative scale and some markers distinctive of the levels of lipid peroxidation.
# [3] = Dosage I: 100 μg/kg i.p. once daily, N = 16
# [4] = Dosage I: 100 μg/kg i.p. once daily
# [5] = Dosage II: 400 μg/kg i.p. once daily, N = 20
# [6] = Dosage II: 400 μg/kg i.p. once daily
# [7] = Dosage II: 400 μg/kg once daily
substance,measurement,setting,value
GHRP-6,"Grade 0 (null) hepatic fibrosis, animals per group",[1]; [3],5
same,"Grade 1 (moderate) hepatic fibrosis, animals per group",[1]; [3],9
same,"Grade 2 (limited) hepatic fibrosis, animals per group",[1]; [3],2
same,"Grade 3 (severe) hepatic fibrosis, animals per group",[1]; [3],0
same,"Grade 4 (very severe) hepatic fibrosis, animals per group",[1]; [3],0
same,GGT serum level,[1]; [4],71.53 ± 22.14 U/I
same,GOT serum level,[1]; [4],61.58 ± 16.10 IU/I
same,GPT serum level,[1]; [4],81.71 ± 30.90 IU/I
same,Content of OH—P (hydroxiproline) in liver,[1]; [3],56.71 ± 8.11 μg/g of total proteins
same,"Grade 0 (null) hepatic fibrosis, animals per group",[1]; [5],8
same,"Grade 1 (moderate) hepatic fibrosis, animals per group",[1]; [5],11
same,"Grade 2 (limited) hepatic fibrosis, animals per group",[1]; [5],1
same,"Grade 3 (severe) hepatic fibrosis, animals per group",[1]; [5],0
same,"Grade 4 (very severe) hepatic fibrosis, animals per group",[1]; [5],0
same,GGT serum level,[1]; [6],25.56 ± 8.63 U/I
same,GOT serum level,[1]; [6],30.41 ± 6.11 IU/I
same,GPT serum level,[1]; [6],60.64 ± 19.87 IU/I
same,Content of OH—P (hydroxiproline) in liver,[1]; [5],16.15 ± 1.025 μg/g of total proteins
same,Deposit of collagenous and extracellular materials in liver parenchyma (overall result),"[1]; ligation of the common bile duct, morphological and biochemical data",eradicate and control the deposit of collagenous and extracellular materials in liver parenchyma
same,Catalase (oxidative stress marker),[1]; Dosage I: 100 μg/kg,68.50 ± 12.73
same,HPT (oxidative stress marker),[1]; Dosage I: 100 μg/kg,43.06 ± 1.83
same,MDA (oxidative stress marker),[1]; Dosage I: 100 μg/kg,0.14 ± 0.02
same,SODt (oxidative stress marker),[1]; Dosage I: 100 μg/kg,11058.07 ± 744.61
same,Catalase (oxidative stress marker),[1]; Dosage II: 400 μg/kg,31.50 ± 4.3
same,HPT (oxidative stress marker),[1]; Dosage II: 400 μg/kg,21.16 ± 1.71
same,MDA (oxidative stress marker),[1]; Dosage II: 400 μg/kg,0.08 ± 0.01
same,SODt (oxidative stress marker),[1]; Dosage II: 400 μg/kg,21029.87 ± 498.28
same,GOT serum level,[2]; Dosage I: 100 μg/kg once daily,56.31 ± 12.19 IU/l
same,GPT serum level,[2]; Dosage I: 100 μg/kg once daily,77.15 ± 22.66 IU/l
same,OH—P Content (hydroxiproline) in the liver,[2]; Dosage I: 100 μg/kg once daily,40.21 ± 3.54 μg/g of total proteins
same,"Grade 0 (null) bridging fibro-proliferative reaction in liver, animals per group",[2]; Dosage I: 100 μg/kg once daily,0
same,"Grade 1 (moderate, up to 25% of the slide), animals per group",[2]; Dosage I: 100 μg/kg once daily,9
same,"Grade 2 (limited, up to 50% of the slide), animals per group",[2]; Dosage I: 100 μg/kg once daily,6*
same,"Grade 3 (severe, up to the 75% of the slide), animals per group",[2]; Dosage I: 100 μg/kg once daily,0
same,"Grade 4 (very severe, over 75% of the slide), animals per group",[2]; Dosage I: 100 μg/kg once daily,0
same,GOT serum level,[2]; [7],28.18 ± 4.71 IU/l
same,GPT serum level,[2]; [7],26.94 ± 12.42 IU/l
same,OH—P Content (hydroxiproline) in the liver,[2]; [7],10.22 ± 4.33 μg/g of total proteins
same,"Grade 0 (null) bridging fibro-proliferative reaction in liver, animals per group",[2]; [7],8*
same,"Grade 1 (moderate, up to 25% of the slide), animals per group",[2]; [7],7
same,"Grade 2 (limited, up to 50% of the slide), animals per group",[2]; [7],0
same,"Grade 3 (severe, up to the 75% of the slide), animals per group",[2]; [7],0
same,"Grade 4 (very severe, over 75% of the slide), animals per group",[2]; [7],0
same,Catalase (oxidative stress marker),[2]; Dosage I: 100 μg/kg,60.43 ± 11.81
same,HPT (oxidative stress marker),[2]; Dosage I: 100 μg/kg,55.11 ± 2.77
same,MDA (oxidative stress marker),[2]; Dosage I: 100 μg/kg,0.16 ± 1.16
same,SODt (oxidative stress marker),[2]; Dosage I: 100 μg/kg,17632.08 ± 321.55
same,Catalase (oxidative stress marker),[2]; Dosage II: 400 μg/kg,22.67 ± 3.56
same,HPT (oxidative stress marker),[2]; Dosage II: 400 μg/kg,26.44 ± 2.43
same,MDA (oxidative stress marker),[2]; Dosage II: 400 μg/kg,0.09 ± 0.01
same,SODt (oxidative stress marker),[2]; Dosage II: 400 μg/kg,20187.87 ± 245.13
same,Deposition of collagenous and extracellular matrix materials in the liver parenchyma (overall result),[2]; repeated CCl4 administration,eradicate and control deposition of collagenous and extracellular matrix materials
same,Hepatocytes death,[2]; repeated CCl4 administration,"prevents individual, focal and pericentrolobular hepatocytes death"
